The text below walks through data of patent US9708259B2 (Hoffmann-La Roche Inc., priority 2013, dated 2017).

Changes are numbered by the printed parent chain. Read-outs that look alike come from different tables or passages of the source.

As a reminder, the EC50 is the concentration that produces a half-maximal response.

The target of assay [1] is T1, ratM1 (Rattus norvegicus, UniProt P08482).
T1 construct: expressed in transfected cells; host or cells: CHO cells (stated generally for the assay, not specifically for rat M1)
T1 sequence (P08482 1-460): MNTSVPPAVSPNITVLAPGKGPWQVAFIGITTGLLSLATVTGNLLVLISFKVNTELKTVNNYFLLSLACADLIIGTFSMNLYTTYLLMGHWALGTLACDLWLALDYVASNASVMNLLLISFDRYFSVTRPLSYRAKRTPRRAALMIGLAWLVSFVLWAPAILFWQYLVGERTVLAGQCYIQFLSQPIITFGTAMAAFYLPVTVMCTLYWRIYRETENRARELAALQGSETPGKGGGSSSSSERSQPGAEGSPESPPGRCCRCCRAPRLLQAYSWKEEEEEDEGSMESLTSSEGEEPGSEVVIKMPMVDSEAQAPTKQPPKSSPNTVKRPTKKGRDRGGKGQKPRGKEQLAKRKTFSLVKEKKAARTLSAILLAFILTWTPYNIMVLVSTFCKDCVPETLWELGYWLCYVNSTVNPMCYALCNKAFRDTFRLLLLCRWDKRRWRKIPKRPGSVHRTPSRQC
Nature of the assay: M1 PAM assay (FLIPR intracellular calcium), rat M1. The format is cell-based. In general terms: Calcium assays in cells follow changes in intracellular calcium, usually with a dye or a luminescent sensor.

For assay [2], the target named is T2, human M1 (Homo sapiens, UniProt P11229).
T2 construct: expressed in transfected cells; host or cells: CHO cells
T2 sequence (P11229 1-460): T1 sequence (P08482 1-460) with V5A, S254T, S309P, K320R, G337A, V413I
Nature of the assay: M1 PAM assay (FLIPR intracellular calcium), human M1. The assay is classed as cell-based. A digest of the protocol: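 CHO cells expressing M1, Fluo-4AM-loaded, in HEPES/probenecid HBSS pH 7.4, 1% DMSO final. Compounds pre-incubated 2 min for agonist activity versus 30 nM acetylcholine control. For PAM activity, acetylcholine EC20 added after the 2 min pre-incubation, then 2 min more before FLIPR intracellular Ca2+ read.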

Where [3] appears, read: rat M1, FLIPR Ca2+, second value of the cell, read-out: ratM1 EC50.
[4] abbreviates: CHO human M1 cells, FLIPR Ca2+, with EC20 of acetylcholine, first value of the cell, read-out: hM1 EC50.

In the case of `Cn1cc(-c2ccc(Cn3cc(C(=O)N[C@H]4CCC[C@@H]4O)c4c(F)cccc43)c(F)c2)cn1` [Example 17, 4-Fluoro-1-(2-fluoro-4-(1-methyl-1H-pyrazol-4-yl)benzyl)-N-((1S,2S)-2-hydroxycyclopentyl)-1H-indole-3-carboxamide], the results for the EC50 in assay [1] (setting [3]) and in assay [2] (setting [4]) were 169 nM and 100 nM, respectively.
On to `CO[C@H]1COC[C@@H]1NC(=O)c1cn(Cc2ccc(-c3cnn(C)c3)cc2)c2cccc(F)c12` [Example 8, 4-fluoro-N-[(3S,4R)-4-methoxyoxolan-3-yl]-1-[[4-(1-methylpyrazol-4-yl)phenyl]methyl]indole-3-carboxamide], for which the EC50 in assay [1] (setting [3]) turned out to be 427 nM; in assay [2] (setting [4]), 278 nM.
On the same counts, the results for `CNC(=O)c1ccc(Cn2cc(C(=O)NC3CCOCC3)c3c(F)cccc32)cn1` [Example 147, 4-fluoro-1-((6-(methylcarbamoyl)pyridin-3-yl)methyl)-N-(tetrahydro-2H-pyran-4-yl)-1H-indole-3-carboxamide] are 323 nM and 197 nM.
The matching figures for `Cn1cc(-c2ccc(Cn3cc(C(=O)N[C@@H]4CCCC[C@H]4O)c4c(F)cccc43)c(F)c2)cn1` [Example 2]: 208 nM and 39 nM.
With `Cn1cc(-c2ccc(Cn3cc(C(=O)NCC4CCO4)c4c(F)cccc43)cc2)cn1` (stereo not drawn) [Example 14, 4-fluoro-1-(4-(1-methyl-1H-pyrazol-4-yl)benzyl)-N-(oxetan-2-ylmethyl)-1H-indole-3-carboxamide], the EC50 in assay [1] (setting [3]) is 198 nM; in assay [2] (setting [4]) it was 121 nM.
On the same counts, the results for `CNC(=O)c1ccc(Cn2cc(C(=O)N[C@H]3CCCC[C@@H]3O)c3c(F)cccc32)cc1` [Example 59, 4-fluoro-N-((1S,2S)-2-hydroxycyclohexyl)-1-(4-(methylcarbamoyl)benzyl)-1H-indole-3-carboxamide] are 4.35 nM and 4.33 nM.
The matching figures for `Cn1cc(-c2ccc(Cn3cc(C(=O)NC4CCOCC4)c4c(F)ccc(F)c43)c(F)c2)cn1` [Example 96, 4,7-difluoro-1-(2-fluoro-4-(1-methyl-1H-pyrazol-4-yl)benzyl)-N-(tetrahydro-2H-pyran-4-yl)-1H-indole-3-carboxamide]: 73 nM and 28 nM.
`Cn1ncc2cc(Cn3cc(C(=O)N[C@H]4CCOC[C@@H]4O)c4c(F)cccc43)ccc21` (single isomer, unassigned) [Example 52, 4-fluoro-N-((3R,4S) or (3S,4R)-3-hydroxytetrahydro-2H-pyran-4-yl)-1-((1-methyl-1H-indazol-5-yl)methyl)-1H-indole-3-carboxamide]: the EC50 was found to be 27 nM in assay [1] and 17.9 nM in assay [2].
Turning to `Cn1cc(-c2ccc(Cn3nc(C(=O)N[C@H]4CCCC[C@@H]4O)c4c(F)cccc43)c(F)c2)cn1` [Example 3, 4-fluoro-1-(2-fluoro-4-(1-methyl-1H-pyrazol-4-yl)benzyl)-N-((1S,2S)-2-hydroxycyclohexyl)-1H-indazole-3-carboxamide], the figures for the EC50 in assay [1] (setting [3]) and in assay [2] (setting [4]) were 90.6 nM and 25.2 nM, respectively.
The matching figures for `CNC(=O)c1ccc(Cn2cc(CC(=O)N[C@H]3CCCC[C@@H]3O)c3c(F)cccc32)cc1` [Example 99]: 195 nM and 54 nM.
The matching figures for `Cn1cc(-c2ccc(Cn3cc(C(=O)NC4CCOCC4O)c4c(F)c(F)c(F)c(F)c43)cc2)cn1` (single isomer, unassigned) [Example 62, 4,5,6,7-Tetrafluoro-N-((3S,4R) or (3R,4S))-3-hydroxytetrahydro-2H-pyran-4-yl)-1-(4-(1-methyl-1H-pyrazol-4-yl)benzyl)-1H-indole-3-carboxamide]: 563 nM and 433 nM.
For `CNC(=O)c1ccc(Cn2cc(C(=O)NC3CCS(=O)(=O)CC3)c3c(F)cccc32)cc1` [Example 125, N-(1,1-dioxothian-4-yl)-4-fluoro-1-[[4-(methylcarbamoyl)phenyl]methyl]indole-3-carboxamide], the EC50 in assay [1] (setting [3]) was found to be 623 nM; in assay [2] (setting [4]) it was 166 nM.
The matching figures for `Cn1cc(-c2ccc(Cn3cc(C(=O)N[C@H]4CCOC[C@@H]4O)c4c(F)ccc(C5CC5)c43)cc2)cn1` [Example 106, 7-cyclopropyl-4-fluoro-N-((3R,4S)-3-hydroxytetrahydro-2H-pyran-4-yl)-1-(4-(1-methyl-1H-pyrazol-4-yl)benzyl)-1H-indole-3-carboxamide]: 187 nM and 189 nM.
The matching figures for `O=C(N[C@H]1CCCC[C@@H]1O)c1cn(Cc2ccc(-c3ccccc3)nc2)c2cccc(F)c12` [Example 131, 4-fluoro-N-((1S,2S)-2-hydroxycyclohexyl)-1-((6-phenylpyridin-3-yl)methyl)-1H-indole-3-carboxamide]: 152 nM and 36 nM.
On the same counts, the results for `O=C(N[C@H]1CCOC[C@@H]1O)c1cn(Cc2ccc(N3CCCC3=O)cc2)c2cccc(F)c12` [Example 84, 4-fluoro-N-((3R,4S)-3-hydroxytetrahydro-2H-pyran-4-yl)-1-(4-(2-oxopyrrolidin-1-yl)benzyl)-1H-indole-3-carboxamide] are 169 nM and 182 nM.
For the molecule `Cn1cc(-c2ccc(Cn3cc(C(=O)N[C@H]4CCCC[C@@H]4O)c4c(F)ccc(C5CC5)c43)cc2)cn1` [Example 105, 7-cyclopropyl-4-fluoro-N-((1S,2S)-2-hydroxycyclohexyl)-1-(4-(1-methyl-1H-pyrazol-4-yl)benzyl)-1H-indole-3-carboxamide], the values for the EC50 in assay [1] (setting [3]) and in assay [2] (setting [4]) were 627 nM and 288 nM, respectively.
In the case of `Cn1cc(-c2ccc(Cn3nc(C(=O)N[C@H]4CCCC[C@@H]4O)c4c(F)ccc(F)c43)cn2)cn1` [Example 75, 4,7-difluoro-N-((1S,2S)-2-hydroxycyclohexanol)-1-((6-(1-methyl-1H-pyrazol-4-yl)yridine-3-yl)methyl)-1H-indazole-3-carboxamide], the EC50 in assay [1] (setting [3]) is 46 nM; in assay [2] (setting [4]), 40.1 nM.
The matching figures for `Cn1cc(-c2ccc(Cn3cc(C(=O)NCC4(O)CC4)c4c(F)cccc43)c(F)c2)cn1` [Example 97, 4-fluoro-1-(2-fluoro-4-(1-methyl-1H-pyrazol-4-yl)benzyl)-N-((1-hydroxycyclopropyl)methyl)-1H-indole-3-carboxamide]: 1890 nM and 465 nM.
The matching figures for `Cc1ccn(-c2ccc(Cn3cc(C(=O)N[C@H]4CCCC[C@@H]4O)c4c(F)cccc43)cc2)n1` [Example 50, 4-fluoro-N-((1S,2S)-2-hydroxycyclohexyl)-1-(4-(3-methyl-1H-pyrazol-1-yl)benzyl)-1H-indole-3-carboxamide]: 13.9 nM and 18.3 nM.
`O=C(N[C@H]1CCCC[C@@H]1O)c1cn(Cc2ccccc2)c2cccc(F)c12` [Example 47, 1-benzyl-4-fluoro-N-((1S,2S)-2-hydroxycyclohexyl)-1H-indole-3-carboxamide]: the figures for the EC50 in assay [1] and in assay [2] were 393 nM and 118 nM, respectively.
Take `O=C(N[C@H]1CCOC[C@@H]1O)c1cn(Cc2ccc(-c3nccs3)cc2)c2cccc(F)c12` [Example 79, 4-fluoro-N-((3R,4S)-3-hydroxytetrahydro-2H-pyran-4-yl)-1-(4-(thiazol-2-yl)benzyl)-1H-indole-3-carboxamide]: the values for the EC50 in assay [1] (setting [3]) and in assay [2] (setting [4]) were 25.6 nM and 16.8 nM, respectively.
